Source: patent publication US20080107619A1, “Carbohydrate based cellulase inhibitors as feeding stimulants in termites” (University of Florida Research Foundation, Inc., priority 2006, published 2008)
pIC50: −log10 of the molar value.

Legend:
endoglucanase = test: Post-feeding inhibition of endoglucanase activity in whole-body homogenates; type: in vivo, R. flavipes; settings: after 24 days feeding, various concentrations; FIGS. 11A-11C
Description: (§1) Whole body homogenates were used for optimization and post-feeding inhibition studies. Here, 10-15 termite workers were homogenized in 1 to 1.5 ml ice-cold homogenization buffer with a Teflon-glass (Potter-Elvehjem) homogenizer powered by a motorized electric stirrer (Fisher Scientific). After homogenization, both gut region and whole-body preparations were centrifuged at 15,000× g and 4° C. for 15 min. The resulting supernatants from the different gut regions were used directly for subsequent enzyme assays. Supernatants from whole-body homogenates were passed through glass wool to remove excess lipids before proceeding with cellulase activity assays.
Cellulase activity assays were adapted from Han et al. in “Characterization of a bifunctional cellulase and its structural gene,” J. Biol. Chem. 270 (1995) 26012-26019, with optimization for a 96-well microplate format. The model substrates used to test for endoglucanase, exoglucanase and β-glucosidase activities were CMC (FIG. 1A), pNPC (FIG. 1B) and pNPG (FIG. 1C), respectively. The substrate concentration used for CMC was 0.5% (w/v), while pNPG and pNPC were used at 4 mM. All substrates were diluted in homogenization buffer. […] Color was allowed to develop on ice for 15 min before measuring absorbance at 540 nm relative to a glucose standard curve. […]

exoglucanase = test: Post-feeding inhibition of exoglucanase activity in whole-body homogenates; type: in vivo, R. flavipes; settings: after 24 days feeding at 5 mM and above
Description: as §1
(§2) Cellulase activity assays were adapted from Han et al. in “Characterization of a bifunctional cellulase and its structural gene,” J. Biol. Chem. 270 (1995) 26012-26019, with optimization for a 96-well microplate format. […] Color was allowed to develop on ice for 15 min before measuring absorbance at 540 nm relative to a glucose standard curve.
(§3) The hydrolysis product of both the pNPC and pNPG substrates is p-nitrophenol, which is yellow in color and permits for direct quantification of activity in a kinetic assay. pNPC and pNPG assays were initially incubated at 32° C. for 20 min before measuring the release of the product, p-nitrophenol, at 420 nm. […]

β-glucosidase = test: Post-feeding inhibition of β-glucosidase activity in whole-body homogenates; type: in vivo, R. flavipes; settings: after 24 days feeding at 25 mM and above
Description: as §1, §2, §3

[1] = target: T1, Cel7A cellobiohydrolase (exoglucanase) (Trichoderma reesei, UniProt P62694); settings: non-competitive inhibition; Vonhoff et al.; read-out: I50; cited from earlier work
T1 sequence (P62694 18-513): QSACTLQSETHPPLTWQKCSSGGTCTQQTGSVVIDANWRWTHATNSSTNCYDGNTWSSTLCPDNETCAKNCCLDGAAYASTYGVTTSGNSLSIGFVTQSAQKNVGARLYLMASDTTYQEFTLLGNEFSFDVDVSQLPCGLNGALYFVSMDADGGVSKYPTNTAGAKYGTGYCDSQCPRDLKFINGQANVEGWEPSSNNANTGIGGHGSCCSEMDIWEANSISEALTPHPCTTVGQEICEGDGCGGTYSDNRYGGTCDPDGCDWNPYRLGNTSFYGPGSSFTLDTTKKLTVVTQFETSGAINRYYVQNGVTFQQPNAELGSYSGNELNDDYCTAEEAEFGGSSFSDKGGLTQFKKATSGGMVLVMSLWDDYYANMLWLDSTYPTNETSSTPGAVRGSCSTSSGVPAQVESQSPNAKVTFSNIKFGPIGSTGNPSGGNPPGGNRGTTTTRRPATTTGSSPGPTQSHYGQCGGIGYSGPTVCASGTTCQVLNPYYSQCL

Cel5A enzyme = target: T2, Cel5A enzyme (Salipaludibacillus agaradhaerens, UniProt O85465); settings: Varrott et al.; read-out: I50 value; cited from earlier work
T2 sequence (O85465 27-400): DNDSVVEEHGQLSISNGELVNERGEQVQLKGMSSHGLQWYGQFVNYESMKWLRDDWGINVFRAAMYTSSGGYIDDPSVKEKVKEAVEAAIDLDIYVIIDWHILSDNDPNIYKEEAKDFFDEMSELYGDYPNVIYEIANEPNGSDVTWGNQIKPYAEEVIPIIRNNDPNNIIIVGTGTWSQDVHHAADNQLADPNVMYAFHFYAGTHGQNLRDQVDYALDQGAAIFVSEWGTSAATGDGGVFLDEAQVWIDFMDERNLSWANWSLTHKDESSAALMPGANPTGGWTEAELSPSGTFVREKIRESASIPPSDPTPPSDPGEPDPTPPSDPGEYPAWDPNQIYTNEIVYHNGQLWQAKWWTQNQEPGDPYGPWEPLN

OC[C@@H]1[C@@H](O[C@@H]2O[C@H](CO)[C@@H](O)[C@H](O)[C@H]2O)[C@H](O)[C@@H](O)c2nccn21 [CBI, cellobioimidazole]
endoglucanase activity after feeding, reduction relative to controls (endoglucanase): significant | Exoglucanase activity, maximal reduction relative to controls (exoglucanase): ~75% | β-glucosidase activity, maximal reduction relative to controls (β-glucosidase): ~90% | pIC50 [1]: 3.89 | pIC50 (Cel5A enzyme): 4.06
